Source: publication PMC10817945, “Design of a novel analogue peptide with potent antibiofilm activities against Staphylococcus aureus based upon a sapecin B-derived peptide” (Scientific Reports, 2024)
Converted amounts (≈) assume the structure as drawn. Where two headings read alike, the source gives them in different places. Non-standard residues stand in square brackets, D forms with d. Residues, ends and D or L forms follow the SMILES beside them.

How the values were obtained:
[1] = tested on: S. aureus isolates; format: cell-based, Staphylococcus aureus
Procedure: Minimum inhibitory concentrations (MIC) of KLK, mKLK, and vancomycin were determined using microdilution broth assay according to clinical and laboratory standards institute (CLSI) guidelines with some modifications. Briefly, overnight cultures were diluted in Muller-Hinton broth (MHB; Merck, Germany) to achieve a final density of 5 × 10^5 CFU/ml. A volume of 100 μl of bacterial suspension was added to wells of sterile 96-well plates containing 100 μl of two-fold peptide dilutions, ranging from 0.25 to 256 µg/ml. Vancomycin was used as a positive control in this assay. […] MBC was determined by removing samples from wells with no visible growth, serially diluting, and plating on Mueller Hinton (MH) agar plates for CFU counting.

[2] = in vitro; conditions: human
Procedure: (§1) The assay was performed using fresh human blood samples containing citrate phosphate dextrose anticoagulant collected from a blood bank (Iranian Blood Transfusion Organization). Human red blood cells (RBC) were centrifuged at 1700×g for 5 min; then the supernatant was removed and the erythrocyte pellet was diluted 1:100 in PBS to obtain a 1% erythrocyte suspension. […] Then, 50 μl of the 1% erythrocyte suspension and 50 μl of the peptides were mixed and added to wells of a 96-well polypropylene conical bottom microplate and incubated at 37 °C for 1 h. Following centrifugation of the samples at 1700×g for 5 min, 50 μl of the supernatant was transferred to wells of a 96-well flat-bottom plate for the absorbance measurement at 405 nm in a microplate reader. Identical volumes of Triton X-100 (1%) and PBS were used as positive and negative controls, respectively. The selectivity indexes (SI) were also determined as a toxicity indicator.

[3] = tested on: Human red blood cells; assay: in vitro
Procedure: as §1

[4] = tested on: S. aureus strains; assay: Inhibition of bacterial surface attachment (crystal violet); format: cell-based, Staphylococcus aureus
Procedure: (§2) To investigate the inhibitory effect of KLK and mKLK peptides on bacterial surface attachment and biofilm formation, the bacterial suspension in TSB with a concentration of 10^7 CFU/ml was prepared from overnight culture. An aliquot of 100 μl of the bacterial suspension was added to wells of 96-well plates containing 100 μl of the peptides solution with concentrations of 1×, 1/2× and 1/4× MIC, resulting in the final peptides concentrations of 1/2×, 1/4× and 1/8× MIC. To investigate the inhibitory effect of the peptides on surface attachment the incubation was performed at 37 °C for 2 h and to evaluate their inhibitory activity on biofilm formation the incubation was performed at 37 °C for 24 h. The wells containing only TSB medium were used as negative controls. After incubation, the contents of the wells were removed and washed three times with PBS and the wells were stained with 200 μl of 0.1% crystal violet for 20 min. The plates were washed again and excess dye was removed. A volume of 200 μl of 95% ethanol was added to each well for 20 min and absorbance was measured at 570 nm by a microplate reader.

[5] = tested on: S. aureus strains; format: cell-based, Staphylococcus aureus; conditions: ATCC25923, control 2.302±0.006
Procedure: as §2

CC(C)C[C@@H](NC(=O)[C@H](N)CCCCN)C(=O)N[C@H](CCCCN)C(=O)N[C@H](CC(C)C)C(=O)N[C@H](CC(C)C)C(=O)N[C@H](CC(C)C)C(=O)N[C@H](CC(C)C)C(=O)N[C@H](CC(C)C)C(=O)N[C@H](CCCCN)C(=O)N[C@H](CC(C)C)C(=O)N[C@H](CCCCN)C(N)=O [KLK] (H-[dK][dL][dK][dL][dL][dL][dL][dL][dK][dL][dK]-NH2; N-terminus assumed)
MBC ([1]; ATCC25923): 4 µg/mL (≈ 3.03 µM)
MBC ([1]; MRSA-1): 8 µg/mL (≈ 6.05 µM)
MBC ([1]; MRSA-2): 8 µg/mL (≈ 6.05 µM)
MBC ([1]; MRSA-3): 8 µg/mL (≈ 6.05 µM)
MBC ([1]; MSSA-1): 4 µg/mL (≈ 3.03 µM)
MBC ([1]; MSSA-2): 4 µg/mL (≈ 3.03 µM)
hemolysis at 1 h, 1.56 µM [2]: 10.4%
hemolysis at 1 h, 3.12 µM [2]: 18.3%
hemolysis at 1 h, 6.25 µM [2]: 27.1%
hemolysis at 1 h, 12.5 µM [2]: 34.2%
hemolysis at 1 h, 25 µM [2]: 42.8%
hemolysis at 1 h, 50 µM [2]: 71.5%
hemolysis at 1 h, 75 µM [2]: 80.1%
hemolysis at 1 h, 100 µM [2]: 88.3%
hemolysis at 1 h, 150 µM [2]: 92.2%
hemolysis at 1 h, 200 µM [2]: 95.4%
HC50 [3]: 38.49 µg/mL
HC50 ([3]; red cells of human, 1 h): 29.1 µM
crystal violet absorbance at 570 nm, bacterial attachment, Mean±SD ([4]; ATCC25923, 1/2MIC, control 2.136±0.01): 1.904±0.08
crystal violet absorbance at 570 nm, bacterial attachment, Mean±SD ([4]; ATCC25923, 1/4MIC, control 2.136±0.01): 1.965±0.03
crystal violet absorbance at 570 nm, bacterial attachment, Mean±SD ([4]; ATCC25923, 1/8MIC, control 2.136±0.01): 2.03±0.07
crystal violet absorbance at 570 nm, bacterial attachment, Mean±SD ([4]; MRSA-1, 1/2MIC, control 1.861±0.02): 1.508±0.03
crystal violet absorbance at 570 nm, bacterial attachment, Mean±SD ([4]; MRSA-1, 1/4MIC, control 1.861±0.02): 1.712±0.01
crystal violet absorbance at 570 nm, bacterial attachment, Mean±SD ([4]; MRSA-1, 1/8MIC, control 1.861±0.02): 1.8±0.17
crystal violet absorbance at 570 nm, bacterial attachment, Mean±SD ([4]; MRSA-2, 1/2MIC, control 2.311±0.005): 2.082±2.02
crystal violet absorbance at 570 nm, bacterial attachment, Mean±SD ([4]; MRSA-2, 1/4MIC, control 2.311±0.005): 2.146±0.008
crystal violet absorbance at 570 nm, bacterial attachment, Mean±SD ([4]; MRSA-2, 1/8MIC, control 2.311±0.005): 2.198±0.04
crystal violet absorbance at 570 nm, bacterial attachment, Mean±SD ([4]; MRSA-3, 1/2MIC, control 1.491±0.06): 1.031±0.07
crystal violet absorbance at 570 nm, bacterial attachment, Mean±SD ([4]; MRSA-3, 1/4MIC, control 1.491±0.06): 1.369±0.01
crystal violet absorbance at 570 nm, bacterial attachment, Mean±SD ([4]; MRSA-3, 1/8MIC, control 1.491±0.06): 1.428±0.06
crystal violet absorbance at 570 nm, bacterial attachment, Mean±SD ([4]; MSSA-1, 1/2MIC, control 2.107±0.08): 1.89±0.002
crystal violet absorbance at 570 nm, bacterial attachment, Mean±SD ([4]; MSSA-1, 1/4MIC, control 2.107±0.08): 1.925±0.06
crystal violet absorbance at 570 nm, bacterial attachment, Mean±SD ([4]; MSSA-1, 1/8MIC, control 2.107±0.08): 2.006±0.01
crystal violet absorbance at 570 nm, bacterial attachment, Mean±SD ([4]; MSSA-2, 1/2MIC, control 2.061±0.01): 1.804±0.03
crystal violet absorbance at 570 nm, bacterial attachment, Mean±SD ([4]; MSSA-2, 1/8MIC, control 2.061±0.01): 1.958±0.07
crystal violet absorbance at 570 nm, biofilm formation, Mean±SD ([5]; 1/2MIC): 1.654±0.006
crystal violet absorbance at 570 nm, biofilm formation, Mean±SD ([5]; 1/4MIC): 2.069±0.04
crystal violet absorbance at 570 nm, biofilm formation, Mean±SD ([5]; 1/8MIC): 2.113±0.01
